# Laboratory results as given in PubChem BioAssay (NCI).
#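 GI50: concentration for 50% inhibition of growth. At the TGI there is no net growth.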
# Legend:
# Experiment in all cases: inhibition of tumour cell growth, NCI panel, 384-well format
# K-562 leukemia = test system: K-562 leukemia
# PC-3 prostate = test system: PC-3 prostate
# RPMI-8226 leukemia = test system: RPMI-8226 leukemia
# OVCAR-3 ovarian = test system: OVCAR-3 ovarian
# SW-620 colon = test system: SW-620 colon
# NCI-H226 lung = test system: NCI-H226 lung
# COLO 205 colon = test system: COLO 205 colon
# CAKI-1 renal = test system: CAKI-1 renal
# A498 renal = test system: A498 renal
# MDA-MB-231 breast = test system: MDA-MB-231 breast
# SK-OV-3 ovarian = test system: SK-OV-3 ovarian
# UACC-257 melanoma = test system: UACC-257 melanoma
# MCF7 breast = test system: MCF7 breast
# MDA-MB-435 melanoma = test system: MDA-MB-435 melanoma
# SNB-19 CNS = test system: SNB-19 CNS
# M14 melanoma = test system: M14 melanoma
# OVCAR-8 ovarian = test system: OVCAR-8 ovarian
# SK-MEL-2 melanoma = test system: SK-MEL-2 melanoma
# IGROV1 ovarian = test system: IGROV1 ovarian
# ACHN renal = test system: ACHN renal
# DU-145 prostate = test system: DU-145 prostate
# RXF 393 renal = test system: RXF 393 renal
# HCT-15 colon = test system: HCT-15 colon
# UACC-62 melanoma = test system: UACC-62 melanoma
# KM12 colon = test system: KM12 colon
# NCI-H23 lung = test system: NCI-H23 lung
# U251 glioblastoma = test system: U251 glioblastoma
# TK-10 renal = test system: TK-10 renal
# SF-295 CNS = test system: SF-295 CNS
# SF-539 CNS = test system: SF-539 CNS
# HOP-92 NSCLC = test system: HOP-92 NSCLC
# LOX IMVI melanoma = test system: LOX IMVI melanoma
# SK-MEL-28 melanoma = test system: SK-MEL-28 melanoma
# BT-549 breast = test system: BT-549 breast
# 786-0 renal = test system: 786-0 renal
# MALME-3M melanoma = test system: MALME-3M melanoma
# NCI/ADR-RES ovarian = test system: NCI/ADR-RES ovarian
# A549 NSCLC = test system: A549 NSCLC
# HCT-116 colon = test system: HCT-116 colon
# SN12C renal = test system: SN12C renal
# UO-31 renal = test system: UO-31 renal
# HT29 colon = test system: HT29 colon
# T-47D breast = test system: T-47D breast
# NCI-H460 NSCLC = test system: NCI-H460 NSCLC
# SK-MEL-5 melanoma = test system: SK-MEL-5 melanoma
# HCC-2998 colon = test system: HCC-2998 colon
# HOP-62 NSCLC = test system: HOP-62 NSCLC
# OVCAR-4 ovarian = test system: OVCAR-4 ovarian
# OVCAR-5 ovarian = test system: OVCAR-5 ovarian
# SF-268 CNS = test system: SF-268 CNS
# NCI-H522 lung = test system: NCI-H522 lung
# HL-60(TB) leukemia = test system: HL-60(TB) leukemia
# MOLT-4 leukemia = test system: MOLT-4 leukemia
# SR leukemia = test system: SR leukemia
# CCRF-CEM leukemia = test system: CCRF-CEM leukemia
# EKVX NSCLC = test system: EKVX NSCLC
# HS 578T breast = test system: HS 578T breast
# SNB-75 CNS = test system: SNB-75 CNS
# MDA-MB-468 breast = test system: MDA-MB-468 breast
# NCI-H322M lung = test system: NCI-H322M lung
structure (smiles),measurement,setting,value
CC[C@@H]1c2c(C#N)ncn2-c2cnc(Nc3ccc(C(=O)NC4CCN(C5CCN(CC6CC6)CC5)CC4)cc3OC)nc2N1C1CCCC1,GI50,K-562 leukemia,21.1 nM
same,TGI,K-562 leukemia,43.8 nM
same,GI50,PC-3 prostate,53.8 nM
same,TGI,PC-3 prostate,302 nM
same,GI50,RPMI-8226 leukemia,13.9 nM
same,TGI,RPMI-8226 leukemia,31.5 nM
same,GI50,OVCAR-3 ovarian,15.7 nM
same,TGI,OVCAR-3 ovarian,48.4 nM
same,TGI,SW-620 colon,44.8 nM
same,GI50,NCI-H226 lung,175 nM
same,TGI,NCI-H226 lung,1310 nM
same,GI50,COLO 205 colon,19.8 nM
same,TGI,COLO 205 colon,110 nM
same,GI50,CAKI-1 renal,137 nM
same,TGI,CAKI-1 renal,280 nM
same,GI50,A498 renal,123 nM
same,TGI,A498 renal,254 nM
same,GI50,MDA-MB-231 breast,44.5 nM
same,TGI,MDA-MB-231 breast,158 nM
same,GI50,SK-OV-3 ovarian,26.1 nM
same,TGI,SK-OV-3 ovarian,87.5 nM
same,GI50,UACC-257 melanoma,78.5 nM
same,TGI,UACC-257 melanoma,201 nM
same,GI50,MCF7 breast,34.5 nM
same,TGI,MCF7 breast,169 nM
same,GI50,MDA-MB-435 melanoma,15.7 nM
same,TGI,MDA-MB-435 melanoma,38.6 nM
same,GI50,SNB-19 CNS,38.7 nM
same,TGI,SNB-19 CNS,269 nM
same,GI50,M14 melanoma,30 nM
same,TGI,M14 melanoma,81.9 nM
same,GI50,OVCAR-8 ovarian,21.7 nM
same,TGI,OVCAR-8 ovarian,41.8 nM
same,GI50,SK-MEL-2 melanoma,13.8 nM
same,TGI,SK-MEL-2 melanoma,33.9 nM
same,GI50,IGROV1 ovarian,44.9 nM
same,TGI,IGROV1 ovarian,1660 nM
same,GI50,ACHN renal,204 nM
same,TGI,ACHN renal,767 nM
same,GI50,DU-145 prostate,23.9 nM
same,TGI,DU-145 prostate,53.8 nM
same,GI50,RXF 393 renal,19.7 nM
same,TGI,RXF 393 renal,43.3 nM
same,GI50,HCT-15 colon,137 nM
same,TGI,HCT-15 colon,269 nM
same,GI50,UACC-62 melanoma,32.8 nM
same,TGI,UACC-62 melanoma,95.5 nM
same,GI50,KM12 colon,23.9 nM
same,TGI,KM12 colon,74.9 nM
same,GI50,NCI-H23 lung,27.5 nM
same,TGI,NCI-H23 lung,61.4 nM
same,GI50,U251 glioblastoma,23.3 nM
same,TGI,U251 glioblastoma,152 nM
same,GI50,TK-10 renal,317 nM
same,TGI,TK-10 renal,1740 nM
same,GI50,SF-295 CNS,75.7 nM
same,TGI,SF-295 CNS,1480 nM
same,GI50,SF-539 CNS,36.5 nM
same,TGI,SF-539 CNS,106 nM
same,GI50,HOP-92 NSCLC,43.3 nM
same,TGI,HOP-92 NSCLC,404 nM
same,GI50,LOX IMVI melanoma,28.3 nM
same,TGI,LOX IMVI melanoma,59.6 nM
same,GI50,SK-MEL-28 melanoma,60.1 nM
same,TGI,SK-MEL-28 melanoma,182 nM
same,GI50,BT-549 breast,54.2 nM
same,TGI,BT-549 breast,228 nM
same,GI50,786-0 renal,116 nM
same,TGI,786-0 renal,241 nM
same,GI50,MALME-3M melanoma,134 nM
same,TGI,MALME-3M melanoma,263 nM
same,GI50,NCI/ADR-RES ovarian,1110 nM
same,TGI,NCI/ADR-RES ovarian,2310 nM
same,GI50,A549 NSCLC,41.7 nM
same,TGI,A549 NSCLC,171 nM
same,GI50,HCT-116 colon,21.4 nM
same,TGI,HCT-116 colon,107 nM
same,GI50,SN12C renal,103 nM
same,TGI,SN12C renal,356 nM
same,GI50,UO-31 renal,181 nM
same,TGI,UO-31 renal,322 nM
same,GI50,HT29 colon,22 nM
same,TGI,HT29 colon,48.8 nM
same,GI50,T-47D breast,117 nM
same,TGI,T-47D breast,241 nM
same,GI50,NCI-H460 NSCLC,16.4 nM
same,TGI,NCI-H460 NSCLC,35.1 nM
same,GI50,SK-MEL-5 melanoma,17.2 nM
same,TGI,SK-MEL-5 melanoma,65.6 nM
same,GI50,HCC-2998 colon,20.9 nM
same,TGI,HCC-2998 colon,48.7 nM
same,GI50,HOP-62 NSCLC,28.6 nM
same,TGI,HOP-62 NSCLC,76.6 nM
same,GI50,OVCAR-4 ovarian,125 nM
same,TGI,OVCAR-4 ovarian,273 nM
same,GI50,OVCAR-5 ovarian,53 nM
same,TGI,OVCAR-5 ovarian,204 nM
same,GI50,SF-268 CNS,25.1 nM
same,TGI,SF-268 CNS,197 nM
CCN(Cc1cc(Nc2nc(C)cn3c(-c4cn[nH]c4)cnc23)sn1)C(C)(C)CO,GI50,K-562 leukemia,< 10 nM
same,TGI,K-562 leukemia,< 10 nM
same,GI50,PC-3 prostate,21 nM
same,TGI,PC-3 prostate,2000 nM
same,GI50,RPMI-8226 leukemia,29.1 nM
same,TGI,RPMI-8226 leukemia,123 nM
same,GI50,OVCAR-3 ovarian,16.3 nM
same,TGI,OVCAR-3 ovarian,204 nM
same,GI50,SW-620 colon,16.3 nM
same,TGI,SW-620 colon,1360 nM
same,GI50,NCI-H522 lung,< 10 nM
same,TGI,NCI-H522 lung,64.6 nM
same,GI50,NCI-H226 lung,< 10 nM
same,TGI,NCI-H226 lung,152 nM
same,GI50,COLO 205 colon,< 10 nM
same,TGI,COLO 205 colon,100 nM
same,GI50,HL-60(TB) leukemia,< 10 nM
same,TGI,HL-60(TB) leukemia,< 10 nM
same,GI50,CAKI-1 renal,< 10 nM
same,TGI,CAKI-1 renal,42.1 nM
same,GI50,A498 renal,13.2 nM
same,TGI,A498 renal,299 nM
same,GI50,MDA-MB-231 breast,30 nM
same,TGI,MDA-MB-231 breast,830 nM
same,GI50,SK-OV-3 ovarian,< 10 nM
same,TGI,SK-OV-3 ovarian,41.1 nM
same,GI50,UACC-257 melanoma,1070 nM
same,TGI,UACC-257 melanoma,2310 nM
same,GI50,MCF7 breast,139 nM
same,TGI,MCF7 breast,1580 nM
same,GI50,MOLT-4 leukemia,< 10 nM
same,TGI,MOLT-4 leukemia,< 10 nM
same,GI50,MDA-MB-435 melanoma,71.2 nM
same,TGI,MDA-MB-435 melanoma,242 nM
same,GI50,SNB-19 CNS,53.4 nM
same,TGI,SNB-19 CNS,1070 nM
same,GI50,M14 melanoma,< 10 nM
same,TGI,M14 melanoma,142 nM
same,GI50,SR leukemia,< 10 nM
same,TGI,SR leukemia,< 10 nM
same,GI50,OVCAR-8 ovarian,21.3 nM
same,TGI,OVCAR-8 ovarian,188 nM
same,GI50,CCRF-CEM leukemia,< 10 nM
same,TGI,CCRF-CEM leukemia,< 10 nM
same,GI50,EKVX NSCLC,32.1 nM
same,TGI,EKVX NSCLC,1500 nM
same,GI50,HS 578T breast,15.6 nM
same,TGI,HS 578T breast,39 nM
same,GI50,IGROV1 ovarian,15.5 nM
same,TGI,IGROV1 ovarian,372 nM
same,GI50,ACHN renal,33.4 nM
same,TGI,ACHN renal,10600 nM
same,GI50,DU-145 prostate,21.3 nM
same,TGI,DU-145 prostate,1270 nM
same,GI50,RXF 393 renal,< 10 nM
same,TGI,RXF 393 renal,133 nM
same,GI50,HCT-15 colon,23.2 nM
same,TGI,HCT-15 colon,1560 nM
same,GI50,UACC-62 melanoma,18.7 nM
same,TGI,UACC-62 melanoma,1270 nM
same,GI50,KM12 colon,15.4 nM
same,TGI,KM12 colon,1040 nM
same,GI50,NCI-H23 lung,40.9 nM
same,TGI,NCI-H23 lung,274 nM
same,GI50,SNB-75 CNS,10 nM
same,TGI,SNB-75 CNS,36.9 nM
same,GI50,U251 glioblastoma,42.5 nM
same,TGI,U251 glioblastoma,1180 nM
same,GI50,TK-10 renal,72.5 nM
same,TGI,TK-10 renal,378 nM
same,GI50,SF-295 CNS,102 nM
same,TGI,SF-295 CNS,319 nM
same,GI50,SF-539 CNS,12 nM
same,TGI,SF-539 CNS,57.2 nM
same,GI50,HOP-92 NSCLC,32.3 nM
same,TGI,HOP-92 NSCLC,178 nM
same,GI50,LOX IMVI melanoma,27.6 nM
same,TGI,LOX IMVI melanoma,134 nM
same,GI50,SK-MEL-28 melanoma,169 nM
same,TGI,SK-MEL-28 melanoma,9720 nM
same,GI50,BT-549 breast,11.6 nM
same,TGI,BT-549 breast,50.4 nM
same,GI50,786-0 renal,45.7 nM
same,TGI,786-0 renal,370 nM
same,GI50,MDA-MB-468 breast,< 10 nM
same,TGI,MDA-MB-468 breast,< 10 nM
same,GI50,MALME-3M melanoma,26.6 nM
same,TGI,MALME-3M melanoma,1130 nM
same,GI50,NCI/ADR-RES ovarian,534 nM
same,TGI,NCI/ADR-RES ovarian,4080 nM
same,GI50,A549 NSCLC,42.3 nM
same,TGI,A549 NSCLC,1450 nM
same,GI50,HCT-116 colon,< 10 nM
same,TGI,HCT-116 colon,1400 nM
same,GI50,SN12C renal,13.7 nM
same,TGI,SN12C renal,61.3 nM
same,GI50,UO-31 renal,64.1 nM
same,TGI,UO-31 renal,1700 nM
same,GI50,HT29 colon,74.1 nM
same,TGI,HT29 colon,490 nM
same,GI50,T-47D breast,1050 nM
same,TGI,T-47D breast,11400 nM
same,GI50,NCI-H460 NSCLC,26.1 nM
same,TGI,NCI-H460 NSCLC,1130 nM
same,GI50,SK-MEL-5 melanoma,118 nM
same,TGI,SK-MEL-5 melanoma,537 nM
same,GI50,HCC-2998 colon,99.9 nM
same,TGI,HCC-2998 colon,362 nM
same,GI50,NCI-H322M lung,69.2 nM
same,TGI,NCI-H322M lung,1660 nM
same,GI50,HOP-62 NSCLC,21 nM
same,TGI,HOP-62 NSCLC,178 nM
same,GI50,OVCAR-4 ovarian,114 nM
same,TGI,OVCAR-4 ovarian,357 nM
same,GI50,SF-268 CNS,14.8 nM
same,TGI,SF-268 CNS,170 nM
